The nature of series [1]: Induction of hydrogen peroxide generation at 100 uM after 30 mins by xylenol orange staining-based spectrophotometry in presence of GSH and oxygen. The format is physicochemical. Particulars: 0.5 h.
Series [2] can be described thus: Antiproliferative activity against human THP1 cells after 72 hrs by XTT assay. The format is functional, cell-based. The settings on record: THP-1, 72 h. In general terms: Tetrazolium dyes change colour on reduction, which living cells bring about.
Series [3] concerns HEK293. Briefly: Antiproliferative activity against HEK293 cells after 72 hrs by XTT assay. The series is classed as cell-based. Particulars: Homo sapiens, HEK293, 72 h.
The test system of series [4] is HEK293. The series can be described thus: Selectivity index, ratio of IC50 for HEK293 cells to IC50 for human THP1 cells. The series is classed as functional.
Series [5] can be described thus: Antiproliferative activity against human glioma cells. The series is classed as functional, cell-based. Particulars: Glioma cell.

With `COc1cccc(C23OC2C(=O)c2ccccc2C3=O)c1` (stereo not given), the Activity in series [1] was 1.46 µM. Further, in series [2], the concentration for half-maximal inhibition (IC50) (commonly the concentration that inhibits the measured activity by half) is above 50 µM.

Take `O=C1c2cccc(O)c2C(=O)C2OC12` (stereo not given): in series [1], the Activity is 5.64 µM. In series [2], this compound displayed an IC50 of 11.2 µM.

For the compound `O=C1c2cccc(OCc3ccccc3)c2C(=O)C2OC12` (stereo not given), the Activity in series [1] was found to be 1.6 µM. Besides, the IC50 in series [2] is 28 µM.

As for `Cc1ccc(C23OC2C(=O)c2ccccc2C3=O)cc1` (stereo not given), in series [1], the Activity is 1.48 µM. In series [2], this compound had an IC50 of 20.4 µM.

For `COc1ccc(C23OC2C(=O)c2ccccc2C3=O)cc1` (stereo not given), in series [1], the Activity was 1.4 µM. This compound showed an IC50 in series [2] of 11.6 µM.

Turning to `O=C1c2cccc(OCc3ccc(C(F)(F)F)cc3)c2C(=O)C2OC12` (stereo not given), the Activity in series [1] is 1.68 µM. Further, in series [2], the IC50 is above 50 µM.

For the compound `CC12OC1C(=O)c1c(OCc3ccccc3)cccc1C2=O` (stereo not given), in series [1], the Activity stood at 1.58 µM. This compound had an IC50 in series [2] above 50 µM.

In the case of `O=C1c2ccccc2C(=O)C2OC12` (stereo not given), the Activity in series [1] was determined as 4.4 µM. The IC50 with HEK293 [3] stood at 18.9 µM; in series [2], 6.3 µM.

Take `COc1cccc2c1C(=O)c1c(O)c3c(c(O)c1C2=O)C[C@@](O)(C(=O)CO)C[C@@H]3O[C@H]1C[C@H](N)[C@H](O)[C@H](C)O1` [DOXORUBICIN]: the IC50 in the series on HEK293 [3] worked out at 0.7 µM; in series [2], 0.11 µM. Moreover, in the series with HEK293 [4], the “Ratio IC50” value came to 6.4.

Turning to `Nc1cccc2c1C(=O)C1OC1C2=O` (stereo not given), the Activity in series [1] came out at 1.68 µM. This compound also registered an IC50 in series [2] above 50 µM.

On to `CC12OC1C(=O)c1c(O)cccc1C2=O` (stereo not given), for which the Activity in series [1] was determined as 1.6 µM. This compound yielded a 50% inhibitory concentration (IC50) in series [2] of 22.8 µM.

Take `O=C1c2cccc([N+](=O)[O-])c2C(=O)C2OC12` (stereo not given): in series [1], the Activity worked out at 5.2 µM. The IC50 in the series on HEK293 [3] was 12.4 µM; in series [2], 3.6 µM.

For the compound `O=C1c2ccccc2C(=O)C2(c3cccc([N+](=O)[O-])c3)OC12` (stereo not given), the Activity in series [1] was determined as 1.4 µM. Besides, the IC50 in series [2] is above 50 µM.

As for `O=C1c2ccccc2C(=O)C2(c3ccc(F)cc3)OC12` (stereo not given), the Activity in series [1] was 1.36 µM. For the same compound, 11.7 µM corresponded to half-maximal inhibition in series [2] (IC50).

As to `O=C1c2ccccc2C(=O)C2(c3ccccc3)OC12` (stereo not given), the Activity in series [1] came to 1.44 µM. The IC50 in series [2] was above 50 µM.

As to `CC12OC1C(=O)c1ccccc1C2=O` (stereo not given), the Activity in series [1] was 1.52 µM. Also, the IC50 in series [5] is 15.7 µM; in series [2], 13.6 µM.

As for `O=C1c2ccc([N+](=O)[O-])cc2C(=O)C2OC12` (stereo not given), in series [1], the Activity was 8.34 µM. In addition, the IC50 turned out to be 55.4 µM in the series with HEK293 [3] and 2.3 µM in series [2].

On to `CC(=O)c1ccc(C23OC2C(=O)c2ccccc2C3=O)cc1` (stereo not given), for which the Activity in series [1] turned out to be 1.36 µM. In series [2], this compound yielded an IC50 above 50 µM.

Take `CCOc1cccc2c1C(=O)C1OC1C2=O` (stereo not given): in series [1], the Activity was 1.68 µM. Also, in series [2], the midpoint of inhibition, the IC50, lay at 9.6 µM.

Turning to `COc1ccccc1C12OC1C(=O)c1ccccc1C2=O` (stereo not given), the Activity in series [1] came to 1.28 µM. The compound also showed an IC50 in series [2] of 12.4 µM.

For the origin of these results see ChEMBL document CHEMBL3217666, “Synthesis, thiol-mediated reactive oxygen species generation profiles and anti-proliferative activities of 2,3-epoxy-1,4-naphthoquinones” (Medchemcomm, 2012).
